Experimental data: paper PMC10489938, “Developing an Amide-Spacered Triterpenoid Rhodamine Hybrid of Nano-Molar Cytotoxicity Combined with Excellent Tumor Cell/Non-Tumor Cell Selectivity” (Molecules, 2023)
Structures can show the parent of a compound that is named as a salt. Where two headings read alike, the source gives them in different places. One block for each molecule: values may come before it.

How the values were obtained:
A375 (melanoma) = assay: SRB cytotoxicity assay, A375; format: cell-based, human; details: read-out: Cytotoxicity (EC50) A375
Protocol: (§1) Sulforhodamine (SRB) assays were performed to evaluate the cytotoxicity of the compounds. First, the cytotoxicity of the different rhodamines was determined; the results of these assays are compiled in Table 1 and Table 2 and depicted in Figure 1.
(§2) Experimental equipment: as previously described biological assays were performed as previously reported employing cell lines obtained from the Department of Oncology [Martin-Luther-University Halle Wittenberg; they were bought from ATCC [2, 4, 7]]. Rhodamine 101 B, as well as asiatic acid, were obtained from local vendors and used as received.
(§3) For the SRB assay and staining experiments: as previously described.

[1] = tested on: HT29 (colorectal carcinoma); assay: SRB cytotoxicity assay, HT29; format: cell-based, human; details: read-out: Cytotoxicity (EC50) HT29
Protocol: as §1, §2, §3

[2] = tested on: MCF7 (breast adenocarcinoma); assay: SRB cytotoxicity assay, MCF7; format: cell-based, human; details: read-out: Cytotoxicity (EC50) MCF7
Protocol: as §1, §2, §3

[3] = tested on: A2780 (ovarian carcinoma); assay: SRB cytotoxicity assay, A2780; format: cell-based, human; details: read-out: Cytotoxicity (EC50) A2780
Protocol: as §1, §2, §3

[4] = tested on: HeLa (cervical adenocarcinoma); assay: SRB cytotoxicity assay, HeLa; format: cell-based, human; details: read-out: Cytotoxicity (EC50) HeLa
Protocol: as §1, §2, §3

[5] = tested on: NIH 3T3 (non-malignant fibroblasts, murine); assay: SRB cytotoxicity assay, NIH 3T3; format: cell-based; details: Table 1, 72 h of treatment, cut-off 30 μM
Protocol: as §1, §2, §3

[6] = tested on: human tumor cell lines and non-malignant fibroblasts (NIH 3T3); assay: SRB cytotoxicity assay, several cell lines stated together; format: cell-based; details: all human tumor cell lines and non-malignant fibroblasts (NIH 3T3), limits of the assay
Protocol: as §1, §2, §3

[7] = SRB cytotoxicity assay, NIH 3T3; format: cell-based, murine; details: mouse, NIH 3T3 non-malignant fibroblasts, Table 1, 72 h of treatment, cut-off 30 μM
Protocol: as §1, §2, §3

[8] = Table 1, SRB assay, 72 h of treatment, cut-off 30 μM

Molecule: rhodamine B [Rh2, reference compound]
- EC50 (A375 (melanoma); [8]): > 30 µM
- EC50 [1, 8]: > 30 µM
- EC50 [2, 8]: > 30 µM
- EC50 [3, 8]: > 30 µM
- EC50 [4, 8]: > 30 µM
- EC50 [5]: > 30 µM
- EC50 [6]: > 30 µM

Molecule: CN(C)c1ccc2c(-c3ccccc3C(=O)O)c3ccc(=[N+](C)C)cc-3oc2c1 [Rh1, reference compound]
- EC50 (A375 (melanoma); Homo sapiens, A-375, 72 h): > 30 µM
- EC50 ([1]; Homo sapiens, HT-29, 72 h): > 30 µM
- EC50 ([2]; Homo sapiens, MCF7, 72 h): > 30 µM
- EC50 ([3]; Homo sapiens, A2780, 72 h): > 30 µM
- EC50 ([4]; Homo sapiens, HeLa, 72 h): > 30 µM
- EC50 at 72 h [7]: > 30 µM
- EC50 ([6]; NIH3T3): > 30 µM

- melting point: 222 to 226 °C
Molecule: CCCCN(CCCC)c1ccc2c(-c3ccccc3C(=O)N3CCN(C(=O)[C@]45CC[C@@H](C)[C@H](C)[C@H]4C4=CC[C@@H]6[C@@]7(C)C[C@@H](OC(C)=O)[C@H](OC(C)=O)[C@@](C)(COC(C)=O)C7CC[C@@]6(C)[C@]4(C)CC5)CC3)c3ccc(=[N+](CCCC)CCCC)cc-3oc2c1 (stereo partly drawn) (as salt: chloride) [compound 9, (2α,3β,4α)-9-[2-{[4-(2,3,23-Tris(Acetyloxy)-urs-12-en-28-oyl)-Piperazinyl]Carbonyl}Phenyl]-3,6-Bis(Dibutylamino)-Xanthylium Chloride]

- melting point: 215 to 218 °C
Molecule: CCCCN(CCCC)c1ccc2c(-c3ccccc3C(=O)N3CCCN(C(=O)[C@]45CC[C@@H](C)[C@H](C)[C@H]4C4=CC[C@@H]6[C@@]7(C)C[C@@H](OC(C)=O)[C@H](OC(C)=O)[C@@](C)(COC(C)=O)C7CC[C@@]6(C)[C@]4(C)CC5)CCC3)c3ccc(=[N+](CCCC)CCCC)cc-3oc2c1 (stereo partly drawn) (as salt: chloride) [compound 19, (2α,3β,4α)-9-[2-[{4-(2α,3β,23-Tris(Acetyloxy)-urs-12-en-28-oyl)-1,5-Diazocan-1-Yl]Carbonyl}Phenyl]-3,6-Bis(Dibutylamino)-Xanthylium Chloride]
